Reference: US11590116B2 (THERAVANCE BIOPHARMA R&D IP, LLC, priority 2019, dated 2023)

Tests used:
[1] = molecular target: T1, recombinant human ALK5 (TGF-βR1) protein (Homo sapiens, UniProt P36897); test: Biochemical ALK5 (TGF-βR1) assay to measure pKi (LANCE Ultra ULight kinase assay); settings: apparent pKi from pIC50 by Cheng-Prusoff, read-out: ALK5 pKi (converted)
T1 construct: purchased Life Technologies PR9075A
T1 sequence (P36897 34-503): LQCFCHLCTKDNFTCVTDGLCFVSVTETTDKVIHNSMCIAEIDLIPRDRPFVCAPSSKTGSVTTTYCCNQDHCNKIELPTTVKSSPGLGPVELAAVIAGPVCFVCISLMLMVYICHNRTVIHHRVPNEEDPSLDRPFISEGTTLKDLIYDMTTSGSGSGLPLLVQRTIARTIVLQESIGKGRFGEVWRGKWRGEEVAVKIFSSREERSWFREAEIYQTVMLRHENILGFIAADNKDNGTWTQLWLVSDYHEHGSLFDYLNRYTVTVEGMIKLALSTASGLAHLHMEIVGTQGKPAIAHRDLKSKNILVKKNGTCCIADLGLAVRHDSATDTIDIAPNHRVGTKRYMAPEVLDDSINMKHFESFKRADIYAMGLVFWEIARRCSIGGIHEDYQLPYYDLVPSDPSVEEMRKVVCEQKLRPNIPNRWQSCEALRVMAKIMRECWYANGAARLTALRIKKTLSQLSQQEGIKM
In short: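 Compounds (10 μM to 25 pM) were preincubated 60 min at room temperature with enzyme, then reactions were started with ATP (125 μM stock, 5× final) and run 60 min at 37 °C. EDTA-containing Eu-anti-phospho-Topo IIα (Thr1342) antibody stopped the reaction; TR-FRET read at 665 nm. pIC50 from 4-parameter fit, converted to pKi via Cheng-Prusoff.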

[2] = tested on: TGF-β-stimulated SMAD3 phosphorylation in BEAS-2B cells; test: Cellular ALK5 potency assay, inhibition of TGF-β stimulated pSMAD3 formation in BEAS-2B cells; assay type: cell-based; settings: Homo sapiens; inhibition of TGF-β stimulated pSMAD3 formation, BEAS-2B cells; read-out: BEAS2B pIC50 (converted)
In short: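 SMAD3 phosphorylation was measured by AlphaLISA after 30 min TGF-β stimulation (10 ng/mL final) of BEAS-2B cells preincubated 1 h with compound at 37 °C. Results given as pIC50.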

Structure (SMILES) | Ki [1] [nM] | IC50 [2] [nM]
Cc1cccc(-c2n[nH]cc2-c2ccc3ncc(CCC(=O)O)cc3n2)n1 [Compound 63, 3-[6-[3-(6-methyl-2-pyridyl)-1H-pyrazol-4-yl]-1,5-naphthyridin-3-yl]propanoic acid] | 3.98 to 31.6 | 1580 to 10000
CNCCn1cc(-c2cnc3ccc(-c4c(-c5cccc(C)n5)nn5c4CNCC5)nc3c2)cn1 [Compound 64, N-methyl-2-[4-[6-[2-(6-methyl-2-pyridyl)-4,5,6,7-tetrahydropyrazolo[1,5-a]pyrazin-3-yl]-1,5-naphthyridin-3-yl]pyrazol-1-yl]ethanamine] | 0.0398 to 0.316 | 200 to 1260
Cc1cccc(-c2n[nH]cc2-c2ccc3ncc(N4CCCN(Cc5ccccc5)CC4)cc3n2)n1 [Compound 65, 7-(4-benzyl-1,4-diazepan-1-yl)-2-[3-(6-methyl-2-pyridyl)-1H-pyrazol-4-yl]-1,5-naphthyridine] | 0.0398 to 0.316 | 200 to 1260
Cc1cccc(-c2n[nH]cc2-c2ccc3ncc(N4CCNC(CO)C4)cc3n2)n1 (centres unmarked) [Compound 66, [4-[6-[3-(6-methyl-2-pyridyl)-1H-pyrazol-4-yl]-1,5-naphthyridin-3-yl]piperazin-2-yl]methanol] | 0.0398 to 0.316 | 25.1 to 158
Cc1cccc(-c2n[nH]cc2-c2ccc3ncc(-c4nc5n(n4)CCNC5)cc3n2)n1 [Compound 67, 2-[3-(6-methyl-2-pyridyl)-1H-pyrazol-4-yl]-7-(5,6,7,8-tetrahydro-[1,2,4]triazolo[1,5-a]pyrazin-2-yl)-1,5-naphthyridine] | 0.0398 to 0.316 | 25.1 to 158
Cc1cccc(-c2[nH]cnc2-c2ccc3ncc(N4CC(CN)C4)cc3c2)n1 [Compound 68, [1-[6-[5-(6-methyl-2-pyridyl)-1H-imidazol-4-yl]-3-quinolyl]azetidin-3-yl]methanamine] | 0.0398 to 0.316 | < 20
Cc1cccc(-c2n[nH]cc2-c2ccc3ncc(-c4cnc(O)nc4)cc3n2)n1 [Compound 69, 5-[6-[3-(6-methyl-2-pyridyl)-1H-pyrazol-4-yl]-1,5-naphthyridin-3-yl]pyrimidin-2-ol] | 0.0398 to 0.316 | 1580 to 10000
Cc1cccc(-c2n[nH]cc2-c2ccc3ncc(-c4cn(C)nn4)cc3n2)n1 [Compound 71, 2-[3-(6-methyl-2-pyridyl)-1H-pyrazol-4-yl]-7-(1-methyltriazol-4-yl)-1,5-naphthyridine] | < 0.0316 | 25.1 to 158
Cc1cccc(-c2n[nH]cc2-c2ccc3ncc(-c4ncco4)cc3n2)n1 [Compound 72, 2-[6-[3-(6-methyl-2-pyridyl)-1H-pyrazol-4-yl]-1,5-naphthyridin-3-yl]oxazole] | 0.0398 to 0.316 | 25.1 to 158
Cc1cccc(-c2n[nH]cc2-c2ccc3ncc(N4CCNCC4)cc3n2)n1 [Compound 73, 2-[3-(6-methyl-2-pyridyl)-1H-pyrazol-4-yl]-7-piperazin-1-yl-1,5-naphthyridine] | < 0.0316 | < 20
Cc1cccc(-c2n[nH]cc2-c2ccc3ncc(N4CCN5CCCC5C4)cc3n2)n1 (centres unmarked) [Compound 74, 7-(3,4,6,7,8,8a-hexahydro-1H-pyrrolo[1,2-a]pyrazin-2-yl)-2-[3-(6-methyl-2-pyridyl)-1H-pyrazol-4-yl]-1,5-naphthyridine] | < 0.0316 | 25.1 to 158
Cc1cccc(-c2n[nH]cc2-c2ccc3ncc(-c4cn5c(n4)CNCC5)cc3n2)n1 [Compound 75, 2-(3-(6-Methylpyridin-2-yl)-1H-pyrazol-4-yl)-7-(5,6,7,8-tetrahydroimidazo[1,2-a]pyrazin-2-yl)-1,5-naphthyridine] | < 0.0316 | 25.1 to 158
CCOC(=O)Cn1cc(-c2cnc3ccc(-c4c[nH]nc4-c4cccc(C)n4)nc3c2)nn1 [Compound 76, ethyl 2-[4-[6-[3-(6-methyl-2-pyridyl)-1H-pyrazol-4-yl]-1,5-naphthyridin-3-yl]triazol-1-yl]acetate] | 0.0398 to 0.316 | 25.1 to 158
